The record followed here is patent US20240368135A1 (VERTEX PHARMACEUTICALS INCORPORATED, priority 2021, published 2024).

Bounds are passed on as bounds.

human NaV 1.8, sequence (Q9Y5Y9 126-399 limits assumed): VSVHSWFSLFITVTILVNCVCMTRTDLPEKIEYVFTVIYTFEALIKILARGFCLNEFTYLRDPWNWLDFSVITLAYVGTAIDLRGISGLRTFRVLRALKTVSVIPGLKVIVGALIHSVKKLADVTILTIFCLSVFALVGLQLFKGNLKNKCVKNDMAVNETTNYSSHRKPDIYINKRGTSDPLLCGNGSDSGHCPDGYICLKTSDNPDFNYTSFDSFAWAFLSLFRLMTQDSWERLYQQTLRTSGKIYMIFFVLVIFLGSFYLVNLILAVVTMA
human NaV 1.8, sequence (Q9Y5Y9 660-890 limits assumed): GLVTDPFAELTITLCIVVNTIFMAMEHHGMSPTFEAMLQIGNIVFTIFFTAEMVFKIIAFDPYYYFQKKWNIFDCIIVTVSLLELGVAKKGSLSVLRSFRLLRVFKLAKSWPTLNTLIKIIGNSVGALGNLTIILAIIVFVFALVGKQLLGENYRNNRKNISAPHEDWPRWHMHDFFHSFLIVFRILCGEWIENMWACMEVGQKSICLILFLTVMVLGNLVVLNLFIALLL
human NaV 1.8, sequence (Q9Y5Y9 1148-1722 limits assumed): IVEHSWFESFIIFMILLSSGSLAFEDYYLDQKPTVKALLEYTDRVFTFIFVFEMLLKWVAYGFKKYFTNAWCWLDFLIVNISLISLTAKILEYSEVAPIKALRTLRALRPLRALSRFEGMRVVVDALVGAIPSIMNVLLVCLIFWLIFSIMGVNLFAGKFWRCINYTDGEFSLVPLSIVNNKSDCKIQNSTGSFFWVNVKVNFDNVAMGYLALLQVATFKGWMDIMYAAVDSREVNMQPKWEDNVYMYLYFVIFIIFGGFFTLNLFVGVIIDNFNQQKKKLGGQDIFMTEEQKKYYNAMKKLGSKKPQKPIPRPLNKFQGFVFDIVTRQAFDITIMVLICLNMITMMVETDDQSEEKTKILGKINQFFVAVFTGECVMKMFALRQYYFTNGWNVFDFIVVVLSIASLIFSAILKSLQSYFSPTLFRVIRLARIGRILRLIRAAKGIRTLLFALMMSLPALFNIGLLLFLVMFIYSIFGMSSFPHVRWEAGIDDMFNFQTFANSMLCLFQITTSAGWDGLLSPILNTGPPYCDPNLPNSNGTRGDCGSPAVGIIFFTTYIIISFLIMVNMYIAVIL

In the first assay the target is human NaV 1.8 (Homo sapiens, UniProt Q9Y5Y9). Put plainly: E-VIPR assay detecting and measuring NaV inhibition properties. The format is cell-based. Conditions: HEK cells expressing truncated human NaV 1.8; in the presence of human serum (compound numbers followed by *); read-out: IC50 in the E-VIPR Assay, performed in the presence of human serum. An outline of the steps:
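Membrane potential was followed by coumarin/oxonol FRET during electrical field stimulation of matrigel-seeded HEK cells carrying truncated human NaV1.8 plus KIR2.1. Dosing used 11 points, 3-fold steps, top 300 nM final, 0.625% DMSO, with or without 25% human serum.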
As to `COc1c([C@H]2C[C@@](C)(C(F)(F)F)O[C@@H]2C(=O)Nc2ccnc(C(O)CO)c2)ccc(F)c1F` (single isomer, unassigned) [Compound 686], the IC50 is no less than 1000 nM.
Take `COc1c([C@@H]2[C@@H](C(=O)Nc3ccnc(C(O)CO)c3)O[C@](C)(C(F)(F)F)[C@@H]2C)ccc(F)c1C` (single isomer, unassigned) [Compound 136]: the IC50 is no less than 1000 nM.
On to `COc1c([C@H]2C[C@@](C)(C(F)(F)F)O[C@@H]2C(=O)Nc2ccnc([C@@H](O)[C@H](C)O)c2)ccc(F)c1F` (stereo in doubt) [Compound 698, rel-(2S,3R,5S)-3-(3,4-difluoro-2-methoxyphenyl)-N-(2-((1R,2S)-1,2-dihydroxypropyl)pyridin-4-yl)-5-methyl-5-(trifluoromethyl)tetrahydrofuran-2-carboxamide], for which the 50% inhibitory concentration (IC50) was no less than 1000 nM.

Staying with this assay, now noted: HEK cells expressing truncated human NaV 1.8; no human serum; read-out: IC50 in the E-VIPR Assay.
For the compound `COc1c([C@H]2[C@H](C(=O)Nc3ccc(-n4ccnc4)nc3)O[C@@](C)(C(F)(F)F)[C@H]2C)ccc(F)c1F` [Compound 401, (2R,3S,4S,5R)-N-(6-(1H-imidazol-1-yl)pyridin-3-yl)-3-(3,4-difluoro-2-methoxyphenyl)-4,5-dimethyl-5-(trifluoromethyl)-tetrahydrofuran-2-carboxamide], the IC50 lay in the range of 10 to 100 nM.
Still for that read-out and setting: the result for `C[C@@H]1CN(C)CC(=O)N1c1cc(NC(=O)[C@@H]2O[C@@](C)(C(F)(F)F)[C@@H](C)[C@H]2c2ccc(F)c(F)c2OCCO)ccn1` [Compound 653, (2R,3S,4S,5R)-3-(3,4-difluoro-2-(2-hydroxyethoxy)phenyl)-N-(2-((R)-2,4-dimethyl-6-oxopiperazin-1-yl)pyridin-4-yl)-4,5-dimethyl-5-(trifluoromethyl)tetrahydrofuran-2-carboxamide] reads 10 to 100 nM; that for `COc1c([C@H]2[C@H](C(=O)Nc3cc(C(O)CN4CCOCC4)ncc3F)O[C@@](C)(C(F)(F)F)[C@H]2C)ccc(F)c1F` (single isomer, unassigned) [Compound 371, rel-(2R*,3S*,4S*,5R*)-3-(3,4-difluoro-2-methoxyphenyl)-N-(5-fluoro-2-(1-hydroxy-2-morpholinoethyl)pyridin-4-yl)-4,5-dimethyl-5-(trifluoromethyl)tetrahydrofuran-2-carboxamide], 10 to 100 nM; that for `C[C@H]1[C@@H](c2ccc(F)c(F)c2OCCO)[C@H](C(=O)Nc2cnc3nnn(C)c3c2)O[C@@]1(C)C(F)(F)F` [Compound 565, (2R,3S,4S,5R)-3-(3,4-difluoro-2-(2-hydroxyethoxy)phenyl)-4,5-dimethyl-N-(1-methyl-1H-[1,2,3]triazolo[4,5-b]pyridin-6-yl)-5-(trifluoromethyl)tetrahydrofuran-2-carboxamide], 10 to 100 nM.
On the same count and under the same terms, the result for `COc1c([C@H]2[C@H](C(=O)Nc3cc(C4CNCCO4)ncc3F)O[C@@](C)(C(F)(F)F)[C@H]2C)ccc(F)c1F` (single isomer, unassigned) [Compound 350, rel-(2R*,3S*,4S*,5R*)-3-(3,4-difluoro-2-methoxyphenyl)-N-(5-fluoro-2-(morpholin-2-yl)pyridin-4-yl)-4,5-dimethyl-5-(trifluoromethyl)-tetrahydrofuran-2-carboxamide] reads 10 to 100 nM; that for `COc1c([C@@H]2C[C@](C)(C(F)(F)F)O[C@H]2C(=O)Nc2ccnc([C@@H](O)CO)c2)ccc(F)c1C` (single isomer, unassigned) [Compound 706], 10 to 100 nM.
Turning to `C[C@H]1[C@@H](c2ccc(F)c(F)c2OC(F)F)[C@H](C(=O)Nc2ccnc(CCO)c2)O[C@@]1(C)C(F)(F)F` (single isomer, unassigned) [Compound 458], the IC50 is less than 10 nM.
The same measure, in the same setting: next, `COc1c([C@H]2[C@H](C(=O)Nc3cnc4c(c3)C(O)CC4)O[C@@](C)(C(F)(F)F)[C@H]2C)ccc(F)c1F` (single isomer, unassigned) [Compound 434, rel-(2R*,3S*,4S*,5R*)-3-(3,4-difluoro-2-methoxyphenyl)-N-(5-hydroxy-6,7-dihydro-5H-cyclopenta[b]pyridin-3-yl)-4,5-dimethyl-5-(trifluoromethyl)tetrahydrofuran-2-carboxamide]: 100 to 1000 nM; `COc1c([C@H]2[C@H](C(=O)Nc3ccc(C(=O)N(C)O)nc3)O[C@@](C)(C(F)(F)F)[C@H]2C)ccc(F)c1F` [Compound 374, 5-[[(2R,3S,4S,5R)-3-(3,4-difluoro-2-methoxy-phenyl)-4,5-dimethyl-5-(trifluoromethyl)tetrahydrofuran-2-carbonyl]amino]-N-hydroxy-N-methyl-pyridine-2-carboxamide]: 10 to 100 nM; `COc1c([C@H]2[C@H](C(=O)Nc3ccc(C(=O)NS(C)(=O)=O)nc3)O[C@@](C)(C(F)(F)F)[C@H]2C)ccc(F)c1F` [Compound 375, 5-[[(2R,3S,4S,5R)-3-(3,4-difluoro-2-methoxy-phenyl)-4,5-dimethyl-5-(trifluoromethyl)tetrahydrofuran-2-carbonyl]amino]-N-methylsulfonyl-pyridine-2-carboxamide]: 100 to 1000 nM.
Still for that read-out and setting: next, `COc1c([C@H]2[C@H](C(=O)Nc3ccc4cnnn4c3)O[C@@](C)(C(F)(F)F)[C@H]2C)ccc(F)c1C(F)F` (stereo in doubt) [Compound 161, rel-(2R,3S,4S,5R)—N-([1,2,3]triazolo[1,5-a]pyridin-6-yl)-3-(3-(difluoromethyl)-4-fluoro-2-methoxyphenyl)-4,5-dimethyl-5-(trifluoromethyl)tetrahydrofuran-2-carboxamide]: less than 10 nM.
As to `CCOc1c(C2C(C(=O)Nc3ccnc(S(C)(=O)=NC)c3)OC(C)(C(F)(F)F)C2C)ccc(F)c1F` (stereo not drawn) [Compound 113, N-[2-(N,S-dimethylsulfonimidoyl)-4-pyridyl]-3-(2-ethoxy-3,4-difluoro-phenyl)-4,5-dimethyl-5-(trifluoromethyl)tetrahydrofuran-2-carboxamide], the IC50 was less than 10 nM.
Still for that read-out and setting: the result for `C[C@H]1[C@@H](c2ccc(F)c(F)c2OCCN2CCOCC2)[C@H](C(=O)Nc2ccn(C)c(=O)c2)O[C@@]1(C)C(F)(F)F` [Compound 588, (2R,3S,4S,5R)-3-(3,4-difluoro-2-(2-morpholinoethoxy)phenyl)-4,5-dimethyl-N-(1-methyl-2-oxo-1,2-dihydropyridin-4-yl)-5-(trifluoromethyl)tetrahydrofuran-2-carboxamide] reads 10 to 100 nM; that for `Cc1nn(CCO)cc1NC(=O)[C@H]1O[C@](C)(C(F)(F)F)[C@H](C)[C@@H]1c1ccc(F)c(F)c1OC(F)F` (single isomer, unassigned) [Compound 75], no less than 1000 nM; that for `COc1c([C@H]2[C@H](C(=O)Nc3cnc4c(c3)OCC4O)O[C@@](C)(C(F)(F)F)[C@H]2C)ccc(F)c1F` (single isomer, unassigned) [Compound 409, rel-(2R*,3S*,4S*,5R*)-3-(3,4-difluoro-2-methoxyphenyl)-N-(3-hydroxy-2,3-dihydrofuro[3,2-b]pyridin-6-yl)-4,5-dimethyl-5-(trifluoromethyl)-tetrahydrofuran-2-carboxamide], 100 to 1000 nM.
On the same count and under the same terms, next, `Cc1nn(C(F)F)cc1NC(=O)[C@@H]1O[C@@](C)(C(F)(F)F)[C@@H](C)[C@H]1c1ccc(F)c(F)c1OCC(N)=O` [Compound 605, (2R,3S,4S,5R)-3-(2-(2-amino-2-oxoethoxy)-3,4-difluorophenyl)-N-(1-(difluoromethyl)-3-methyl-1H-pyrazol-4-yl)-4,5-dimethyl-5-(trifluoromethyl)tetrahydrofuran-2-carboxamide]: 10 to 100 nM.
Same read-out and setting: the result for `CCOc1c([C@H]2[C@H](C(=O)Nc3ccnc(C(O)CO)c3)O[C@@](C)(C(F)(F)F)[C@H]2C)ccc(F)c1F` (single isomer, unassigned) [Compound 104, rel-(2R*,3S*,4S*,5R*)-N-(2-(1,2-dihydroxyethyl)pyridin-4-yl)-3-(2-ethoxy-3,4-difluorophenyl)-4,5-dimethyl-5-(trifluoromethyl)tetrahydrofuran-2-carboxamide] reads less than 10 nM; that for `CNS(=O)(=O)c1cc(NC(=O)C2OC(C)(C(F)(F)F)C(C)C2c2ccc(F)c(F)c2OC)ccn1` (single isomer, unassigned) [Compound 456, 3-(3,4-difluoro-2-methoxy-phenyl)-4,5-dimethyl-N-[2-(methylsulfamoyl)-4-pyridyl]-5-(trifluoromethyl)tetrahydrofuran-2-carboxamide], less than 10 nM; that for `COc1c([C@H]2[C@H](C(=O)Nc3cncc(N4C(=O)CN(C)C[C@H]4C)c3)O[C@@](C)(C(F)(F)F)[C@H]2C)ccc(F)c1F` [Compound 535, (2R,3S,4S,5R)-3-(3,4-difluoro-2-methoxyphenyl)-N-(5-((R)-2,4-dimethyl-6-oxopiperazin-1-yl)pyridin-3-yl)-4,5-dimethyl-5-(trifluoromethyl)tetrahydrofuran-2-carboxamide], 10 to 100 nM.
In the case of `COc1ncc(NC(=O)[C@@H]2O[C@@](C)(C(F)(F)F)[C@@H](C)[C@H]2c2ccc(F)c(F)c2OC)cc1CO` [Compound 247, (2R,3S,4S,5R)-3-(3,4-difluoro-2-methoxyphenyl)-N-(5-(hydroxymethyl)-6-methoxypyridin-3-yl)-4,5-dimethyl-5-(trifluoromethyl)tetrahydrofuran-2-carboxamide], the IC50 lay in the range of 100 to 1000 nM.
Still for that read-out and setting: the result for `C[C@H]1[C@@H](c2ccc(F)c(F)c2OCCN2CC3(COC3)C2)[C@H](C(=O)Nc2ccnc(CO)c2)O[C@@]1(C)C(F)(F)F` [Compound 618, (2R,3S,4S,5R)-3-(2-(2-(2-oxa-6-azaspiro[3.3]heptan-6-yl)ethoxy)-3,4-difluorophenyl)-N-(2-(hydroxymethyl)pyridin-4-yl)-4,5-dimethyl-5-(trifluoromethyl)tetrahydrofuran-2-carboxamide] reads 10 to 100 nM.

Broadly, the IC50 is the concentration at which inhibition is half-maximal.
